The target of this test is TPK enzyme (Homo sapiens, UniProt Q9H3S4). In words: TPK enzyme activity test (TDP formation from thiamine and ATP, HPLC detection). It counts as biochemical. As to the method:
The purpose of this example was to test the promoting effect of compounds on TPK enzyme activity and evaluate the in vitro activity of the compounds based on EC50 and Emax.
1.1) The constant-temperature water-bath shaker was pre-heated half an hour in advance at a pre-heating temperature of 37° C.
1.2) The stock solution of the compound to be tested was taken out, allowed to thaw at room temperature, and then diluted to the required concentration.
1.3) The required reagents were placed on ice to thaw.
2.1) For each reaction system, TPK enzyme solution, Tris-HCl buffer solution, and ATP solution were added. The concentration of ATP used was 1-500 mM. The above three solutions were formulated into a homogeneous mixture.
2.2) The mixture of the above three solutions was dispensed into centrifuge tubes. Then, the compound at the required concentration was added to each centrifuge tube. Finally, thiamine solution (1-100 μM) was added. After the addition of the above system was completed, the centrifuge tubes were tightly capped, inserted into a floating board, and placed in the constant-temperature water-bath shaker that had been pre-heated to 37° C. for incubation for 0.5-2.0 hours.
2.3) After the incubation was completed, perchloric acid stop solution was added and mixed well. Samples were taken into 1.5 mL centrifuge tubes and stored at −20° C.
3.1) The samples stored at −20° C. were taken out, thawed at room temperature, and then subjected to derivatization treatment. The samples were placed in centrifuge tubes, a potassium ferricyanide derivatization reagent was added, and finally phosphoric acid stop solution was added to stop the reaction.
3.2) The derivatized samples were placed in sample vials for liquid chromatography analysis, and the contents of TDP/thiamine were detected by high performance liquid chromatography. TKP enzyme activity=TDP (nM)/mg protein/min.
The effects of the compounds of the present invention on TPK enzyme activity at different concentrations were determined according to the above procedures.

Setting [1] is: promoting effect on TPK enzyme activity, calculated with the effect of DMSO on TPK enzyme activity as 100%, read-out: Emax.
Where [2] appears, read: promoting effect on TPK enzyme activity.
Where [3] appears, read: promoting effect on TPK enzyme activity, calculated with the effect of DMSO on TPK enzyme activity as 100%.

Like-named read-outs stand apart in the source and are kept apart here.

Chain of TPK enzyme (Q9H3S4 whole entry): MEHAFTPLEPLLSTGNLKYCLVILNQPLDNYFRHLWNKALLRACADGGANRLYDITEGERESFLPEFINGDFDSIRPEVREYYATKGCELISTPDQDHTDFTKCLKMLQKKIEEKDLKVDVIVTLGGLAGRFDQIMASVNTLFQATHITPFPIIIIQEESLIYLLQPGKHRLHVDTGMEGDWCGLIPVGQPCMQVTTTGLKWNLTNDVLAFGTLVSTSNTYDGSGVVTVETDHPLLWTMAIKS

Turning to `O=C(/C=C/c1cc(O)c(O)c(O)c1)N1CCN(c2cccc(Cl)c2Cl)CC1` [Compound 55, (E)-1-(4-(2,3-dichlorophenyl)piperazin-1-yl)-3-(3,4,5-trihydroxyphenyl)prop-2-en-1-one], under setting [1], the Emax – broadly, the greatest response seen or fitted, relative to the assay's reference – was 134%.

For `O=C(/C=C/c1ccc(O)c(O)c1)N1CCN(c2cccc(Cl)c2Cl)CC1` [Compound 56], under setting [1], the Emax was 180%.

For the compound `COc1cc(/C=C/C(=O)N2CCN(c3cccc(Cl)c3Cl)CC2)cc(OC)c1OC` [Compound 57], the Emax under setting [1] is 135%.

Take `COc1ccc(/C=C/C(=O)N2CCN(c3cccc(Cl)c3Cl)CC2)cc1OC` [Compound 58]: the EC50 (in general, the concentration giving half of the maximal effect) under setting [2] was determined as 1200 nM. The Emax under setting [1] was 223%.

In turn, `COc1ccc(/C=C/CC(=O)N2CCN(c3cccc(Cl)c3Cl)CC2)cc1OC` [Compound 59, (E)-1-(4-(2,3-dichlorophenyl)piperazin-1-yl)-4-(3,4-dimethoxyphenyl)but-3-en-1-one] displayed an Emax of 206%. Further, the EC50 under setting [2] stood at 1220 nM.

Under setting [2], `COc1ccc(/C=C/CN2CCN(c3cccc(Cl)c3Cl)CC2)cc1OC` [Compound 60, (E)-1-(2,3-dichlorophenyl)-4-(3-(3,4-dimethoxyphenyl)allyl)piperazine] gave an EC50 of 1280 nM. Moreover, the Emax under setting [1] is 234%.

Compound `CC(O)COc1ccc(/C=C/CN2CCN(c3cccc(Cl)c3Cl)CC2)cc1O` (stereo not shown) [Compound 62, (E)-5-(3-(4-(2,3-dichlorophenyl)piperazin-1-yl)prop-1-en-1-yl)-2-(2-hydroxypropoxy)phenol] had an EC50 under setting [2] of 918 nM. Also, under setting [1], the Emax is 137%.

The compound `COc1ccc(CCNC(=O)N2CCN(c3cccc(Cl)c3Cl)CC2)cc1OC` [Compound 64, 4-(2,3-dichlorophenyl)-N-(3,4-dimethoxyphenethyl)piperazine-1-carboxamide] had an Emax of 184%. For the same compound, the EC50 under setting [2] amounted to 4710 nM.

`COc1ccc(NC(=O)CNC(=O)N2CCN(c3cccc(Cl)c3Cl)CC2)cc1OC` [Compound 65, 4-(2,3-dichlorophenyl)-N-(2-((3,4-dimethoxyphenyl)amino)-2-oxoethyl)piperazine-1-carboxamide] came in with an Emax of 133%.

With `COc1cccc(NC(=O)CNC(=O)N2CCN(c3cccc(Cl)c3Cl)CC2)c1` [Compound 68, 4-(2,3-dichlorophenyl)-N-(2-((3-methoxyphenyl)amino)-2-oxoethyl)piperazine-1-carboxamide], the Emax is 144%.

`COc1cncc(C#CCN2CCN(c3cccc(Cl)c3Cl)CC2)c1` [Compound 69, 1-(2,3-dichlorophenyl)-4-(3-(5-methoxypyridin-3-yl)prop-2-yn-1-yl)piperazine] registered an Emax of 194%. This compound returned an EC50 under setting [2] of 2720 nM.

`Oc1cncc(C#CCN2CCN(c3cccc(Cl)c3Cl)CC2)c1` [Compound 70, 5-(3-(4-(2,3-dichlorophenyl)piperazin-1-yl)prop-1-yn-1-yl)pyridin-3-ol] gave an Emax of 147%.

In the case of `COc1cncc(C#CCCN2CCN(c3cccc(Cl)c3Cl)CC2)c1` [Compound 71, 1-(2,3-dichlorophenyl)-4-(4-(5-methoxypyridin-3-yl)but-3-yn-1-yl)piperazine], the Emax is 189%. Also, the EC50 under setting [2] is 1190 nM.

The compound `COc1cncc(C#CC(=O)N2CCN(c3cccc(Cl)c3Cl)CC2)c1` [Compound 72, 1-(4-(2,3-dichlorophenyl)piperazin-1-yl)-3-(5-methoxypyridin-3-yl)prop-2-yn-1-one] showed an Emax of 171%. Under setting [2], this compound yielded a concentration for a half-maximal effect (EC50) of 3240 nM.

Consider `COc1ccc(/C=C/CN2CCN(c3nc4ccccc4s3)CC2)cc1OC` [Compound 73, (E)-2-(4-(3-(3,4-dimethoxyphenyl)allyl)piperazin-1-yl)benzo[d]thiazole], for which the EC50 under setting [2] was 650 nM. Also, under setting [1], the Emax was 155%.

On to `COc1ccc(/C=C/C(=O)N2CCN(c3nc4ccccc4s3)CC2)cc1OC` [Compound 74, (E)-1-(4-(benzo[d]thiazol-2-yl)piperazin-1-yl)-3-(3,4-dimethoxyphenyl)prop-2-en-1-one], for which the EC50 under setting [2] is 12100 nM. Moreover, the Emax under setting [1] was 182%.

`Cc1ccc2c(n1)N(CCCCCN1CCN(c3cccc(Cl)c3Cl)CC1)CCO2` [Compound 75, 4-(5-(4-(2,3-dichlorophenyl)piperazin-1-yl)pentyl)-6-methyl-3,4-dihydro-2H-pyrido[3,2-b][1,4]oxazine] registered an Emax of 136%. For the same compound, the EC50 under setting [2] came to 220 nM.

Under setting [2], `Cc1ccc2c(n1)N(CCC(=O)NCCN1CCN(c3cc(Cl)ccc3C)CC1)CCO2` [Compound 76, N-(2-(4-(5-chloro-2-methylphenyl)piperazin-1-yl)ethyl)-3-(6-methyl-2,3-dihydro-4H-pyrido[3,2-b][1,4]oxazin-4-yl)propanamide] showed an EC50 of 3460 nM. Moreover, the Emax under setting [1] is 147%.

`Cc1ccc2c(n1)N(CCCCCN1CCN(c3cc(Cl)ccc3C)CC1)CCO2` [Compound 77, 4-(5-(4-(5-chloro-2-methylphenyl)piperazin-1-yl)pentyl)-6-methyl-3,4-dihydro-2H-pyrido[3,2-b][1,4]oxazine] showed an Emax of 146%.

`COc1cc2c(cc1OC)N(CCCCN1CCN(c3cccc(C(F)(F)F)c3)CC1)C(=O)C2` [Compound 78, 5,6-dimethoxy-1-(4-(4-(3-(trifluoromethyl)phenyl)piperazin-1-yl)butyl)indol-2-one] returned an Emax of 130%.

Compound `COc1cc2c(cc1OC)N(CCCCN1CCN(c3cccc(Cl)c3Cl)CC1)C(=O)C2` [Compound 79, 1-(4-(4-(2,3-dichlorophenyl)piperazin-1-yl)butyl)-5,6-dimethoxyindolin-2-one] displayed an Emax of 133%.

In the case of `CCOC(=O)c1nc(CNC(=O)CCCN2CCN(c3nc4ccccc4s3)CC2)sc1C` [Compound 80, ethyl 2-((4-(4-(benzo[d]thiazol-2-yl)piperazin-1-yl)butanamido)methyl)-5-methylthiazole-4-carboxylate], a half-maximal response under setting [2] (EC50) required 2550 nM. For the same compound, the Emax under setting [1] is 150%.

In turn, `CCOC(=O)c1nc(CNC(=O)CCCN2CCN(c3cccc(Cl)c3Cl)CC2)sc1C` [Compound 82, ethyl 2-((4-(4-(2,3-dichlorophenyl)piperazin-1-yl)butanamido)methyl)-5-methylthiazole-4-carboxylate] displayed an EC50 under setting [2] of 2520 nM. In addition, the Emax under setting [1] is 156%.

Take `Cc1ccc(Cl)cc1N1CCN(CCNC(=O)CC2Oc3ccccc3NC2=O)CC1` (stereo not shown) [Compound 84]: under setting [2], the EC50 was 3860 nM. Besides, the Emax under setting [3] is recorded as 154.70%.

On to `O=C(CC1Oc2ccccc2NC1=O)NCCN1CCN(c2cccc(Cl)c2Cl)CC1` (stereo not shown) [Compound 85, N-(2-(4-(2,3-dichlorophenyl)piperazin-1-yl)ethyl)-2-(3-oxo-3,4-dihydro-2H-benzo[b][1,4]oxazin-2-yl)acetamide], for which, under setting [1], the Emax is 168%.

As to `Cc1ccc(Cl)cc1N1CCN(CCNC(=O)CC2Oc3ccccc3NC2=O)CC1` (stereo not shown) [Compound 91], under setting [2], the EC50 was 25800 nM. For the same compound, the Emax under setting [3] is reported as 200.91%.

Consider `CN(CCOCc1cccc(Cl)c1Cl)CCOc1ccc2c(c1)NC(=O)CC2` [Compound 98, 7-(2-((2-((2,3-dichlorobenzyl)oxy)ethyl)(methyl)amino)ethoxy)-3,4-dihydroquinolin-2(1H)-one], for which the Emax under setting [1] is 139%.

Regarding `O=C1CCc2ccc(OCCNCCC3CC3c3cccc(Cl)c3Cl)cc2N1` (stereo not shown) [Compound 102, 7-(2-((2-(2-(2,3-dichlorophenyl)cyclopropyl)ethyl)amino)ethoxy)-3,4-dihydroquinolin-2(1H)-one], the EC50 under setting [2] came to 12400 nM. Also, the Emax under setting [1] is 170%.

As for `O=C1CCc2ccc(OCCN3CCc4cc(Cl)ccc43)cc2N1` [Compound 103, 7-(2-(5-chloroindolin-1-yl)ethoxy)-3,4-dihydroquinolin-2(1H)-one], the concentration giving a half-maximal response (EC50) under setting [2] is 17300 nM. The Emax under setting [1] is 137%.

With `O=C1CCc2cc(OCCCN3CC(=O)Nc4ccc(Cl)cc43)ccc2N1` [Compound 115, 6-chloro-4-(3-((2-oxo-1,2,3,4-tetrahydroquinolin-6-yl)oxy)propyl)-3,4-dihydroquinoxalin-2(1H)-one], under setting [1], the Emax is 159%.

Take `COc1cc2c(cc1OC)C(CCCCC(=O)NCc1ccc(C(C)C)cc1)C(=O)N2` (stereo not shown) [Compound 132, 5-(5,6-dimethoxy-2-oxoindolin-3-yl)-N-(4-isopropylbenzyl)pentanamide]: the Emax under setting [1] was 120%.

Under setting [2], `CN(c1cccc(Cl)c1Cl)[C@@H]1CCN(CCCCOc2ccc3c(c2)NC(=O)CC3)C1` [Compound 133, (R)-7-(4-(3-((2,3-dichlorophenyl)(methyl)amino)pyrrolidin-1-yl)butoxy)-3,4-dihydroquinolin-2(1H)-one] returned an EC50 of 10800 nM. The Emax under setting [1] is 167%.

As for `COc1ccc(Cn2c(C(=O)N3CCC(CCOc4ccc5c(c4)NC(=O)CC5)CC3)cc3sccc32)cc1` [Compound 134, 7-(2-(1-(4-(4-methoxybenzyl)-4H-thieno[3,2-b]pyrrole-5-carbonyl)piperidin-4-yl)ethoxy)-3,4-dihydroquinolin-2(1H)-one], the Emax under setting [1] is 149%.
